Reference: patent publication US20060229305A1, “Tetrahydronaphthalene derivatives, process for their production and their use as anti-inflammatory agents” (priority 2005, published 2006)

Experiments:
[1] = biological target: T1, glucocorticoid receptor (GR) (Homo sapiens, UniProt P04150); test: Binding to the glucocorticoid receptor, recombinant receptor in Sf9 cytosol, vs [3H]-dexamethasone; details: cytosol of Sf9 cells, [3H]-dexamethasone as reference
T1 construct: made in house; host or cells: Sf9 cells infected with recombinant baculovirus (cytosol preparation)
T1 sequence (P04150 1-777): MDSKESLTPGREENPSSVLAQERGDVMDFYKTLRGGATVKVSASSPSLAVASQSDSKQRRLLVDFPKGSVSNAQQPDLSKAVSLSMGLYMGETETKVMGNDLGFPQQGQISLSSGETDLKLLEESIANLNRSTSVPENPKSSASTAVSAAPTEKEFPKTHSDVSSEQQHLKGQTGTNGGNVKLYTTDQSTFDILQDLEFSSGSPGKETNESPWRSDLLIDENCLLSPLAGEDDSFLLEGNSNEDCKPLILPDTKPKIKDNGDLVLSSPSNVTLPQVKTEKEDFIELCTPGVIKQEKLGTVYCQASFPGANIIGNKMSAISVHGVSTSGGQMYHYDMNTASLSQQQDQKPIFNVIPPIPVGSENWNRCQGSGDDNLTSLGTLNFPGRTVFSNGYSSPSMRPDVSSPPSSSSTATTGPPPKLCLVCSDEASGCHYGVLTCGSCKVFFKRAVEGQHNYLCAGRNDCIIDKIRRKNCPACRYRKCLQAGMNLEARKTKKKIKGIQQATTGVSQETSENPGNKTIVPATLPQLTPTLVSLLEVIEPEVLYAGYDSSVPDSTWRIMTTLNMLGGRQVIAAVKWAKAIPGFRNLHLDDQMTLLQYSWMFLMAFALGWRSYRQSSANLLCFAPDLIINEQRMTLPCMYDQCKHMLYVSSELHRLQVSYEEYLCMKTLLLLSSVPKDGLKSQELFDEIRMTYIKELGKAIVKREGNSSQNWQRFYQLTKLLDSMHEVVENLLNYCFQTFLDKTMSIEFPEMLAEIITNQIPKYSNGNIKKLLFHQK
Excerpt: (§1) The binding of the substances to the glucocorticoid receptor (GR) and other steroid-hormone receptors (mineral corticoid receptor (MR), progesterone receptor (PR) and androgen receptor (AR)) is examined with the aid of recombinantly produced receptors. Cytosol preparations of Sf9 cells, which had been infected with recombinant baculoviruses that code for the GR, are used for the binding studies. In comparison to the reference substance [^3H]-dexamethasone, the substances show a high affinity to the GR.

[2] = biological target: T2, progesterone receptor (PR) (Homo sapiens, UniProt P06401); test: Binding to the progesterone receptor, recombinantly produced receptor
T2 construct: made in house
T2 sequence (P06401 1-933): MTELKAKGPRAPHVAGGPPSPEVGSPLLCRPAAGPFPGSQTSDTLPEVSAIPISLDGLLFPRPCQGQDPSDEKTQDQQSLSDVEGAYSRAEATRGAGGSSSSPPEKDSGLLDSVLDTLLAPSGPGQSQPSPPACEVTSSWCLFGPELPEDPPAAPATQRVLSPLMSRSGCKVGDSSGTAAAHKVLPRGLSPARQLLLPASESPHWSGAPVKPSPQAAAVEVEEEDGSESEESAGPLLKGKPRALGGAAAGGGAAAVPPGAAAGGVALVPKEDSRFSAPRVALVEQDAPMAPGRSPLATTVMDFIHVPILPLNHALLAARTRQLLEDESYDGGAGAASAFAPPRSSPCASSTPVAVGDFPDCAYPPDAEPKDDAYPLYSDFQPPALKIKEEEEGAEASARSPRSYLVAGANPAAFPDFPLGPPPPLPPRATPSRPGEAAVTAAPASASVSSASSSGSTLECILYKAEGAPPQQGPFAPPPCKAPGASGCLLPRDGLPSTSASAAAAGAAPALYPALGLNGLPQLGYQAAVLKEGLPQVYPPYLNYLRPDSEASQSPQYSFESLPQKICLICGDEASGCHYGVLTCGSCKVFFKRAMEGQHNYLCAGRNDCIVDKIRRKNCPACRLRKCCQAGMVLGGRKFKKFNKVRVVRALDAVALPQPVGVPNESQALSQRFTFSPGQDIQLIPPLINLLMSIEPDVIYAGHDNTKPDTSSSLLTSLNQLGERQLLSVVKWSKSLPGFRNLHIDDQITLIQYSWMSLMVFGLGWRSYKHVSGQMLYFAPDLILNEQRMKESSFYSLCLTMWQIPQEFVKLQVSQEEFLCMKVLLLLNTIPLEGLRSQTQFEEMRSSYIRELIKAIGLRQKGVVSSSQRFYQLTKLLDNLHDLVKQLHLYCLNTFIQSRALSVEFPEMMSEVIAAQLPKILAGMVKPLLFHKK
Excerpt: as §1

[3] = system: cytokine IL-8 secretion, human monocyte cell line THP-1; test: Inhibition of LPS-triggered IL-8 secretion in THP-1 cells (ELISA); assay type: cell-based
Method: The concentration of the cytokines was determined in the supernatant by means of commercially available ELISA kits.

## Cc1ncc2c(NC3c4ccc(F)c(O)c4C(C)C(C)C3(O)C(F)(F)F)cc(F)cc2n1 (racemic) [Example 3, 2-Fluoro-5-[(7-fluoro-2-methylquinazolin-5-yl)amino]-5,6,7,8-tetrahydro-7,8-dimethyl-6-(trifluoromethyl)naphthalene-1,6-diol]
[1]
  IC50: 36 nM
[2]
  IC50: > 1000 nM
[3]; Homo sapiens, LPS-triggered IL-8 secretion, THP-1, ELISA of supernatant, read-out: IC50(IL8)
  IC50: 130 nM
[3]; IL-8 inhibition, THP-1, LPS
  efficiency relative to [3H]-dexamethasone as a standard: 80%
